The values that follow come from publication PMC9147171, “Pharmacokinetic/Pharmacodynamic Evaluation of a New Purine-2,6-Dione Derivative in Rodents with Experimental Autoimmune Diseases” (Pharmaceutics, 2022).

Data set [1] relates to PDE4B. The settings on record: read-out: IC50 (µM) Against PDE Isoform PDE4B; cited from earlier work.
The test system of data set [2] is MOG35–55-induced EAE in mice. The data set is described as follows: MOG35-55-induced experimental autoimmune encephalomyelitis (EAE) in mice, PK/PD EAE progression model. The format is in vivo, female C57BL/6 mice. On the procedure: Female C57BL/6 mice were immunized by subcutaneous injection of MOG35–55 peptide emulsified in complete Freund’s adjuvant and IP administration of pertussis toxin solution in PBS (Hooke Laboratories, Inc., Lawrence, MA, USA). Mice developed EAE 8–14 days after immunization and on day 14 they were randomly divided into two groups. The study group (n = 6) was administered with compound 34 solution at an IP dose of 50 mg·kg^−1 once daily for 15 days, whereas the control group (n = 6) received vehicle alone. To follow the progress of the disease, clinical score (CS) (scale 0–5), including “in-between” scores (i.e., 0.5, 1.5, 2.5, 3.5, and 4.5), and body weight of mice were evaluated according to the protocol provided by Hooke Laboratories, Inc.. Using the Mann–Whitney U test, it was verified that there is no significant difference in CS between the groups on the day of randomization. […]
The model assumes that some time is required for the compound to distribute from the serum to the site of action before it interacts with a biological target and exerts the pharmacological effect. […] The progression of disease, which was measured by CS, is stimulated by the sum of the signals from 20th and 38th transit compartments that allows us to capture the onset of the disease, the temporary remission, and the relapse of the disease that is a characteristic feature of this animal model of MS [30]. […]

Data set [3] has as its system collagen-induced arthritis (CIA) in rats. Briefly: Collagen-induced arthritis (CIA) in rats, PK/PD arthritis progression model. It is filed as in vivo, female Lewis rats. As to the method:
Female Lewis rats were subcutaneously injected at the base of the tail with the emulsion prepared according to the protocol supplied by Chondrex, Inc. (Redmond, WA, USA) at days 0 and 7 of the experiment. To obtain the emulsion, porcine collagen type II (Chondrex, Inc.) (2 mg/mL) in 0.05 M acetic acid was emulsified with incomplete Freund’s adjuvant (Sigma-Aldrich, St. Louis, MO, USA) using a homogenizer with a small blade (LabGen 125, Cole-Parmer, Vernon Hills, IL, USA). On day 20, the animals that developed symptoms of arthritis, i.e., paw swelling above 150% of day 0, were randomly divided into two groups: the control group receiving vehicle alone (n = 6) and the study group treated with the investigated compound at a dose of 20 mg·kg^−1, IP once daily for 21 days (n = 6). Relative paw edema of arthritic rats was measured using a digital caliper according to the procedure described by Earp et al. up to 40 days after the first immunization and then the animals were sacrificed. In addition, the body weight of animals was monitored. After randomization on day 20, using the Mann–Whitney U test, it was verified that there is no significant difference in paw size between the groups.
A previously developed PK/PD model of arthritis progression in rats was utilized in this study (Figure 2). The model was described in detail in our previous publication. Originally, this model was used to assess and compare the effects of a PDE4-selective inhibitor rolipram and two non-selective PDE inhibitors, namely GRMS-55 and lisofylline in CIA in female Lewis rats.
Briefly, the model assumes that PDE inhibitors act by suppressing the production of a precursor of arthritis progression. This is in line with the actual mechanism of anti-inflammatory action of PDE inhibitors that exert their effects by inhibiting the transcription of pro-inflammatory mediators, which participate in the arthritis development. […] Therefore, it was feasible to compare the potency of compound 34 and other PDE inhibitors that were evaluated in our previous study. […]

For data set [4], the system named is PDE4B. The data set is described as follows: PDE inhibition assay, PDE4B (previous investigations). The settings on record: ratio of IC50 values, vs GRMS-55. It is filed as biochemical.

With `Cn1c(=O)c2c(nc(NCCc3ccccc3)n2CCCC(=O)NN=Cc2ccc(O)c(O)c2O)n(C)c1=O` [Compound 34, 4-(1,3-dimethyl-2,6-dioxo-8-(phenethylamino)-2,3,6,7-tetrahydro-1H-purin-7-yl)-N′-(2,3,4-trihydroxybenzylidene)butanehydrazide], the IC50 with PDE4B [1] is 1.4 µM. Besides, the “mean relative body weight, experimental vs control group” value in data set [2] (50 mg·kg^−1 IP once daily for 15 days) is listed as “not significantly different”. For the same compound, the IC50 at 50 mg/kg in data set [2] (Mus musculus, ip, 50 mg·kg^−1 IP once daily for 15 days from day 14, clinical score, PK/PD model estimate, read-out: IC50_CS Compound 34 concentration resulting in 50% inhibition of disease progression, Estimate (CV%)) is 7 ng/mL. For the same compound, the “Relative body weight, experimental vs control group” value in data set [3] (20 mg·kg^−1 IP once daily for 21 days) is reported as “not significantly different”. Besides, the “IC50_Paw in suppressing paw edema, times lower than that for rolipram” value in data set [3] (PK/PD model, rolipram value from ref 28) turned out to be 10 times. The “IC50_Paw, times lower than that for GRMS-55” value in data set [3] (same PK/PD model, GRMS-55 value from ref 28) is recorded as “around 260 times”. The “times more active as a PDE4B inhibitor compared to GRMS-55” value with PDE4B [4] was 19 times.
